Data on 10 compounds can be found in ChEMBL document CHEMBL2424607, “Synthesis, characterization, and computational studies on phthalic anhydride-based benzylidene-hydrazide derivatives as novel, potential anti-inflammatory agents” (2013).

A word on the inhibition in vivo: it is the drop in the measured response relative to a control, in per cent.

Holding throughout (type): functional
Test [1] deals with Rattus norvegicus. The test is described as follows: Antiinflammatory activity against carrageenan-induced paw edema rat model assessed as inhibition of hind paw swelling administered 1 hr before carrageenan challenge measured after 1 hr by plethysmometer relative to control. Background: Carrageenan injected into the paw causes an acute inflammation.
Test [2] concerns Rattus norvegicus. The test is described as follows: Antiinflammatory activity against carrageenan-induced paw edema rat model assessed as inhibition of hind paw swelling administered 1 hr before carrageenan challenge measured after 3 hrs by plethysmometer relative to control.
The species entered for test [3] is Mus musculus. The test can be described thus: Analgesic activity in Swiss albino mouse assessed as duration of thermal-stimulus induced tail flick latency after 90 mins by tail immersion method (reference value: 3.87 +/- 0.10 seconds). Background: In hot-plate and tail-flick tests a longer latency is read as antinociception.
The species named for test [4] is Mus musculus. The test can be described thus: Analgesic activity in Swiss albino mouse assessed as duration of thermal-stimulus induced tail flick latency after 60 mins by tail immersion method (reference value: 3.01 +/- 0.04 seconds).
Test [5] concerns Rattus norvegicus. The test can be described thus: Antiinflammatory activity against carrageenan-induced paw edema rat model assessed as inhibition of hind paw swelling administered 1 hr before carrageenan challenge measured after 2 hrs by plethysmometer relative to control.
The species named for test [6] is Mus musculus. The test can be described thus: Analgesic activity in Swiss albino mouse assessed as duration of thermal-stimulus induced tail flick latency after 30 mins by tail immersion method (reference value: 2.13 +/- 0.03 seconds).
The test system of test [7] is Mus musculus. The test is described as follows: Analgesic activity in Swiss albino mouse assessed as duration of thermal-stimulus induced tail flick latency at 10 mg/kg after 30 mins by tail immersion method (reference value: 2.13 +/- 0.03 seconds).
The test system of test [8] is Rattus norvegicus. The test can be described thus: Antiinflammatory activity against carrageenan-induced paw edema rat model assessed as inhibition of hind paw swelling at 10 mg/kg administered 1 hr before carrageenan challenge measured after 1 hr by plethysmometer relative to control.
Test [9] relates to Rattus norvegicus. The test is described as follows: Antiinflammatory activity against carrageenan-induced paw edema rat model assessed as inhibition of hind paw swelling at 10 mg/kg administered 1 hr before carrageenan challenge measured after 2 hrs by plethysmometer relative to control.
Test [10] has as its system Rattus norvegicus. The test is described as follows: Antiinflammatory activity against carrageenan-induced paw edema rat model assessed as inhibition of hind paw swelling at 10 mg/kg administered 1 hr before carrageenan challenge measured after 3 hrs by plethysmometer relative to control.
The subject of test [11] is Mus musculus. The test is described as follows: Analgesic activity in Swiss albino mouse assessed as duration of thermal-stimulus induced tail flick latency at 10 mg/kg after 90 mins by tail immersion method (reference value: 3.87 +/- 0.10 seconds).
Test [12] has as its system Mus musculus. The test can be described thus: Analgesic activity in Swiss albino mouse assessed as duration of thermal-stimulus induced tail flick latency at 10 mg/kg after 60 mins by tail immersion method (reference value: 3.01 +/- 0.04 seconds).

Consider `O=C(CN1C(=O)c2ccccc2C1=O)N/N=C/c1ccc(Cl)cc1`, for which the “inhibition (INH)” value in the test with Rattus norvegicus [1] turned out to be 26.7%; with Rattus norvegicus [2], 58.6%; in the test with Rattus norvegicus [5], 47.8%. Besides, the results for the Time in the test listed under Mus musculus [3], in the test listed under Mus musculus [4] and in the test listed under Mus musculus [6] were 8.91 s, 7.13 s and 5.61 s, respectively.
As to `O=C([O-])Cc1ccccc1Nc1c(Cl)cccc1Cl.[Na+]` [DICLOFENAC SODIUM], the Time in the test on Mus musculus [7] came out at 3.06 s; in the test with Mus musculus [11] it was 10.93 s; in the test with Mus musculus [12] it was 5.06 s. The inhibition in vivo at 10 mg/kg in the test on Rattus norvegicus [8] was determined as 39.8%; with Rattus norvegicus [9] it was 60.8%; in the test on Rattus norvegicus [10] it was 68%.
With `O=C(CN1C(=O)c2ccccc2C1=O)N/N=C/c1ccccc1`, the figures for the “inhibition (INH)” value with Rattus norvegicus [1], with Rattus norvegicus [2] and with Rattus norvegicus [5] were 14.2%, 17.3% and 15.9%, respectively. Besides, the Time in the test filed under Mus musculus [3] worked out at 3.89 s; in the test filed under Mus musculus [4] it was 3.22 s; in the test filed under Mus musculus [6], 2.83 s.
With `O=C(CN1C(=O)c2ccccc2C1=O)N/N=C/c1ccc([N+](=O)[O-])cc1`, the entries for the “inhibition (INH)” value in the test with Rattus norvegicus [1], in the test with Rattus norvegicus [2] and in the test on Rattus norvegicus [5] were 19.6%, 54.6% and 43.4%, respectively. Further, the Time in the test listed under Mus musculus [3] was found to be 6.83 s; in the test filed under Mus musculus [4] it was 6.45 s; in the test listed under Mus musculus [6], 5.39 s.
With `COc1cc(/C=N/NC(=O)CN2C(=O)c3ccccc3C2=O)ccc1O`, the figures for the “inhibition (INH)” value in the test with Rattus norvegicus [1], in the test with Rattus norvegicus [2] and in the test with Rattus norvegicus [5] were 32.1%, 64% and 53.6%, respectively. For the same compound, the Time in the test filed under Mus musculus [3] worked out at 9.09 s; in the test filed under Mus musculus [4], 6.22 s; in the test listed under Mus musculus [6], 4.53 s.
`Cc1ccc(/C=N/NC(=O)CN2C(=O)c3ccccc3C2=O)cc1`: the “inhibition (INH)” value with Rattus norvegicus [1] is listed as 17.8%; in the test with Rattus norvegicus [2], 25.3%; in the test with Rattus norvegicus [5], 24.6%. The results for the Time in the test listed under Mus musculus [3], in the test listed under Mus musculus [4] and in the test listed under Mus musculus [6] were 4.5 s, 3.86 s and 3.32 s, respectively.
On to `O=C(CN1C(=O)c2ccccc2C1=O)N/N=C/c1ccc(O)cc1`, for which the figures for the “inhibition (INH)” value with Rattus norvegicus [1], in the test with Rattus norvegicus [2] and in the test on Rattus norvegicus [5] were 23.2%, 50.6% and 43.4%, respectively. Moreover, the values for the Time in the test listed under Mus musculus [3], in the test listed under Mus musculus [4] and in the test filed under Mus musculus [6] were 4.12 s, 3.83 s and 3.42 s, respectively.
On to `O=C(CN1C(=O)c2ccccc2C1=O)N/N=C/c1ccccc1[N+](=O)[O-]`, for which the “inhibition (INH)” value was 30.3% in the test with Rattus norvegicus [1], 57.3% in the test on Rattus norvegicus [2] and 49.2% in the test on Rattus norvegicus [5]. Further, the results for the Time in the test listed under Mus musculus [3], in the test filed under Mus musculus [4] and in the test filed under Mus musculus [6] were 6.88 s, 6.29 s and 5.35 s, respectively.
With `COc1cccc(/C=N/NC(=O)CN2C(=O)c3ccccc3C2=O)c1`, the “inhibition (INH)” value with Rattus norvegicus [1] worked out at 28.5%; in the test on Rattus norvegicus [2] it was 61.4%; in the test with Rattus norvegicus [5] it was 49.2%. The Time in the test filed under Mus musculus [3] is listed as 4.92 s; in the test filed under Mus musculus [4], 3.94 s; in the test filed under Mus musculus [6], 3.21 s.
In the case of `COc1cc(/C=N/NC(=O)CN2C(=O)c3ccccc3C2=O)cc(OC)c1OC`, the “inhibition (INH)” value came out at 26.7% in the test on Rattus norvegicus [1], 49.4% with Rattus norvegicus [2] and 40.5% in the test on Rattus norvegicus [5]. For the same compound, the figures for the Time in the test filed under Mus musculus [3], in the test listed under Mus musculus [4] and in the test filed under Mus musculus [6] were 4.21 s, 4.04 s and 3.83 s, respectively.
